Patent US9862707B2, “TrkA kinase inhibitors, compositions and methods thereof” (Merck Sharp & Dohme Corp., priority 2014, dated 2018)

Molecular target: human TrkA receptor (Homo sapiens (Human), UniProt P04629)
Test: TrkA functional activity, DiscoverX PathHunter assay
Type: cell-based
Settings: U2OS cells expressing human TrkA-PK, Shc1-EA and p75NTR; compound 1 h, then NGF at ~80% of maximal response for 3 h; luminescence
Experimental: TrkA functional activity was measured using a DiscoverX PathHunter assay. In this assay, U2OS cells express the human TrkA receptor as a fusion with the weakly complementing fragment of B-galactosidase, which DiscoverX calls “Prolink (PK)”; additionally, Shc1 is fused with a larger fragment, which is called “Enzyme Acceptor (EA)”. Activation of the TrkA receptor, upon NGF addition, results in the kinase domain being phosphorylated, resulting in subsequent recruitment of Shc1-EA protein. That recruitment results in an active B-galactosidase enzyme that is detected by addition of a chemiluminescent substrate. The human p75^NTR protein was also expressed as a co-receptor for NGF.
All reagents were purchased from DiscoverX, except for the receptor agonists (NGF, BDNF, NT3) which were purchased from Peprotech. Cells were expanded and frozen into cryovials, and stored in the vapor phase of liquid nitrogen, and thawed immediately before use. Thawed cells were added to a 384-well plate at 7500 cells/well, and allowed to incubate overnight. Compound at various concentrations was added the following morning and allowed to incubate on cells for 1 h. Then, NGF was added at a concentration sufficient to elicit ˜80% of a maximal response and allowed to incubate for 3 h at ambient temperature. DiscoverX PathHunter detection reagent was then added and the plate was further incubated for 1 h in the dark. The plate was then read via luminescence on the Perkin Elmer Envision.

Sequence of human TrkA receptor (P04629 33-796): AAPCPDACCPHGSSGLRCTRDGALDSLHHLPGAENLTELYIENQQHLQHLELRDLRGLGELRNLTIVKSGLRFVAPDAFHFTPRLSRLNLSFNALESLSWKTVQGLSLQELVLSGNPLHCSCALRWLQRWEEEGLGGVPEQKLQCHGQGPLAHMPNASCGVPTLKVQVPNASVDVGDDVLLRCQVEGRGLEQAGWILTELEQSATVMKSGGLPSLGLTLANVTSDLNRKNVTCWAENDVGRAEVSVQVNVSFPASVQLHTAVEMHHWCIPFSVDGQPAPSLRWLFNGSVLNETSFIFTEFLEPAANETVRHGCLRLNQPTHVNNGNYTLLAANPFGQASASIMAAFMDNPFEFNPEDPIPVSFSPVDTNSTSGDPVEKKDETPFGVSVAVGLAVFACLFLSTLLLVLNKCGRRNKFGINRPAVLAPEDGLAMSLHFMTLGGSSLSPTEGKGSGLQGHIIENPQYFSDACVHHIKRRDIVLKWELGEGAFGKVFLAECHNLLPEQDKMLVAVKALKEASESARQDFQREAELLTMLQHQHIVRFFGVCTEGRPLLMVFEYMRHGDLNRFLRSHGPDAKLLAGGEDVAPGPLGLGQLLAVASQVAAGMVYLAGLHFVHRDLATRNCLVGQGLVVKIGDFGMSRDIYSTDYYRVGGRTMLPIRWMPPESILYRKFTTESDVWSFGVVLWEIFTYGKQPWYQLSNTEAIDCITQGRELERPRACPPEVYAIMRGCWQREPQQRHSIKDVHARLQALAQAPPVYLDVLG

Compound | IC50 [nM]
Cn1ccc(-c2cc(C(=O)Nc3c4cc(C#N)ccc4nn3-c3ccccc3)ccc2C(F)(F)F)n1 [Compound 4, N-(5-cyano-2-phenyl-2H-indazol-3-yl)-3-(1-methyl-1H-pyrazol-3-yl)-4-(trifluoromethyl)benzamide] | 8.8
CNC(=O)Cc1ccc2c(NC(=O)c3cc(-c4ncccn4)c(C(F)(F)F)cc3F)n(-c3ccccc3)nc2c1 [Compound 96, 2-fluoro-N-{6-[2-(methylamino)-2-oxoethyl]-2-phenyl-2H-indazol-3-yl}-5-pyrimidin-2-yl-4-(trifluoromethyl)benzamide] | 8.9
Cn1ccc(-c2cc(C(=O)Nc3c4nc(C(C)(C)O)ncc4nn3-c3ccccc3)c(F)cc2C(F)(F)F)n1 [Compound 43, 2-Fluoro-N-(5-(2-hydroxypropan-2-yl)-2-phenyl-2H-pyrazolo[4,3-d]pyrimidin-3-yl)-5-(1-methyl-1H-pyrazol-3-yl)-4-(trifluoromethyl)benzamide] | 33
Cn1ccc(-c2cc(C(=O)Nc3c4ccc(C(N)=O)cc4nn3-c3ccccc3)c(F)cc2C(F)(F)F)n1 [Compound 74, 3-(2-Fluoro-5-(1-methyl-1H-pyrazol-3-yl)-4-(trifluoromethyl)benzamido)-2-phenyl-2H-indazole-6-carboxamide] | 0.57
O=C(Nc1c2ccc(C(O)C(F)F)cc2nn1-c1ccccc1)c1cc(-c2ncccn2)c(C(F)(F)F)cc1F (single isomer, unassigned; isomer b) [Compound 57, (R or S)-N-[6-(2,2-difluoro-1-hydroxyethyl)-2-phenyl-2H-indazol-3-yl]-2-fluoro-5-pyrimidin-2-yl-4-(trifluoromethyl)benzamide, isomer B] | 13
Cn1ccc(-c2cc(C(=O)Nc3c4ncc(C(C)(C)O)cc4nn3-c3ccccc3)c(F)cc2C(F)(F)F)n1 [Compound 41, 2-Fluoro-N-(6-(2-hydroxypropan-2-yl)-2-phenyl-2H-pyrazolo[4,3-b]pyridin-3-yl)-5-(1-methyl-1H-pyrazol-3-yl)-4-(trifluoromethyl)benzamide] | 0.16
Cn1ccc(-c2cc(C(=O)Nc3c4ncccc4nn3-c3ccccc3)c(F)cc2C(F)(F)F)n1 [Compound 5, 2-fluoro-5-(1-methyl-1H-pyrazol-3-yl)-N-(2-phenyl-2H-pyrazolo[4,3-b]pyridin-3-yl)-4-(trifluoromethyl)benzamide] | 0.66
NC(=O)c1ccc2c(NC(=O)c3cc(-c4ccccn4)c(C(F)(F)F)cc3Cl)n(-c3ccccc3)nc2c1 [Compound 83, 3-({[2-chloro-5-pyridin-2-yl-4-(trifluoromethyl)phenyl]carbonyl}amino)-2-phenyl-2H-indazole-6-carboxamide] | 6.1
NC(=O)c1ccc2c(NC(=O)c3cc(-c4ncccn4)c(C(F)(F)F)cc3F)n(-c3ccccc3)nc2c1 [Compound 73, 3-(2-Fluoro-5-(pyrimidin-2-yl)-4-(trifluoromethyl)benzamido)-2-phenyl-2H-indazole-6-carboxamide] | 3.1
CC(O)c1ccc2nn(-c3ccccc3)c(NC(=O)c3cc(-c4cc[nH]n4)c(C(F)(F)F)cc3F)c2n1 (single isomer, unassigned; isomer a) [Compound 31, (R or S)-2-fluoro-N-[5-(1-hydroxyethyl)-2-phenyl-2H-pyrazolo[4,3-b]pyridin-3-yl]-5-(1H-pyrazol-3-yl)-4-(trifluoromethyl)benzamide, isomer A] | 5.2
NC(=O)c1cnc2c(NC(=O)c3ccc(C(F)(F)F)c(-c4ncccn4)c3)n(-c3ccccc3)nc2c1 [Compound 88, 2-phenyl-3-({[3-pyrimidin-2-yl-4-(trifluoromethyl)phenyl]carbonyl}amino)-2H-pyrazolo[4,3-b]pyridine-6-carboxamide] | 13
O=C(Nc1c2ccc(C3CCCN3)cc2nn1-c1ccccc1)c1cc(-c2ncccn2)c(C(F)(F)F)cc1F (single isomer, unassigned) [Compound 102, (R and S)-2-Fluoro-N-(2-phenyl-6-(pyrrolidin-2-yl)-2H-indazol-3-yl)-5-(pyrimidin-2-yl)-4-(trifluoromethyl)benzamide, isomers A and B] | 29
CC(O)c1cnc2c(NC(=O)c3cc(-c4ncccn4)c(C(F)(F)F)cc3F)n(-c3ccccc3)nc2c1 (single isomer, unassigned; isomer b) [Compound 30, (R or S)-2-fluoro-N-[6-(1-hydroxyethyl)-2-phenyl-2H-pyrazolo[4,3-b]pyridin-3-yl]-5-pyrimidin-2-yl-4-(trifluoromethyl)benzamide, isomer B] | 1.1
O=C(NCCO)c1ccc2c(NC(=O)c3cc(-c4ncccn4)c(C(F)(F)F)cc3F)n(-c3ccccc3)nc2c1 [Compound 92, 3-({[2-fluoro-5-pyrimidin-2-yl-4-(trifluoromethyl)phenyl]carbonyl}amino)-N-(2-hydroxyethyl)-2-phenyl-2H-indazole-6-carboxamide] | 11
O=C(Nc1c2ccc(CO)cc2nn1-c1ccccc1)c1cc(-c2ncccn2)c(C(F)(F)F)cc1Cl [Compound 16, 2-chloro-N-[6-(hydroxymethyl)-2-phenyl-2H-indazol-3-yl]-5-pyrimidin-2-yl-4-(trifluoromethyl)benzamide] | 7.9
O=C(Nc1c2cc(C(O)C(F)F)ccc2nn1-c1ccccc1)c1cc(-c2ncccn2)c(C(F)(F)F)cc1F (single isomer, unassigned; isomer a) [Compound 58, (R or S)-N-[5-(2,2-difluoro-1-hydroxyethyl)-2-phenyl-2H-indazol-3-yl]-2-fluoro-5-pyrimidin-2-yl-4-(trifluoromethyl)benzamide, isomer A] | 6.9
O=C(Nc1c2ccc(C(O)C(F)F)cc2nn1-c1ccccc1)c1cc(-c2ncccn2)c(C(F)(F)F)cc1F (single isomer, unassigned; isomer a) [Compound 56, (R or S)-N-[6-(2,2-difluoro-1-hydroxyethyl)-2-phenyl-2H-indazol-3-yl]-2-fluoro-5-pyrimidin-2-yl-4-(trifluoromethyl)benzamide, isomer A] | 2.8
O=C(Nc1c2cc(C(O)C(F)(F)F)ccc2nn1-c1ccccc1)c1cc(-c2ncccn2)c(C(F)(F)F)cc1F (single isomer, unassigned; isomer a) [Compound 54, (R or S)-2-fluoro-N-(2-phenyl-5-(2,2,2-trifluoro-1-hydroxyethyl)-2H-indazol-3-yl)-5-(pyrimidin-2-yl)-4-(trifluoromethyl)benzamide, isomer A] | 23
NC(=O)Cc1ccc2c(NC(=O)c3cc(-c4ncccn4)c(C(F)(F)F)cc3F)n(-c3ccccc3)nc2c1 [Compound 94, N-(6-(2-Amino-2-oxoethyl)-2-phenyl-2H-indazol-3-yl)-2-fluoro-5-(pyrimidin-2-yl)-4-(trifluoromethyl)benzamide] | 4.4
O=C(CO)NCc1ccc2c(NC(=O)c3cc(-c4ncccn4)c(C(F)(F)F)cc3F)n(-c3ccccc3)nc2c1 [Compound 98, 2-Fluoro-N-(6-((2-hydroxyacetamido)methyl)-2-phenyl-2H-indazol-3-yl)-5-(pyrimidin-2-yl)-4-(trifluoromethyl)benzamide] | 11
O=C(Nc1c2ccc(CO)cc2nn1-c1ccccc1)c1cc(-c2ncccn2)c(C(F)(F)F)cc1F [Compound 13, 2-fluoro-N-[6-(hydroxymethyl)-2-phenyl-2H-indazol-3-yl]-5-pyrimidin-2-yl-4-(trifluoromethyl)benzamide] | 3.8
CC(O)c1cnc2c(NC(=O)c3cc(-c4ncccn4)c(C(F)(F)F)cc3Cl)n(-c3ccccc3)nc2c1 (single isomer, unassigned; isomer a) [Compound 35, (R or S)-2-chloro-N-[6-(1-hydroxyethyl)-2-phenyl-2H-pyrazolo[4,3-b]pyridin-3-yl]-5-pyrimidin-2-yl-4-(trifluoromethyl)benzamide, isomer A] | 1.7
CC(C)(O)c1cnc2c(NC(=O)c3cc(-c4ncccn4)c(C(F)(F)F)cc3F)n(-c3ccccc3)nc2c1 [Compound 40, 2-Fluoro-N-(6-(2-hydroxypropan-2-yl)-2-phenyl-2H-pyrazolo[4,3-b]pyridin-3-yl)-5-(pyrimidin-2-yl)-4-(trifluoromethyl)benzamide] | 3.9
CC(O)c1cnc2c(NC(=O)c3cc(-c4ccn(C)n4)c(C(F)(F)F)cc3F)n(-c3ccccc3)nc2c1 (single isomer, unassigned; isomer b) [Compound 34, (R or S)-2-fluoro-N-[6-(1-hydroxyethyl)-2-phenyl-2H-pyrazolo[4,3-b]pyridin-3-yl]-5-(1-methyl-1H-pyrazol-3-yl)-4-(trifluoromethyl)benzamide, isomer B] | 0.48
O=C(NCCO)c1ccc2c(NC(=O)c3cc(-c4ncccn4)c(C(F)(F)F)cc3Cl)n(-c3ccccc3)nc2c1 [Compound 90, 3-({[2-chloro-5-pyrimidin-2-yl-4-(trifluoromethyl)phenyl]carbonyl}amino)-N-(2-hydroxyethyl)-2-phenyl-2H-indazole-6-carboxamide] | 14
Cn1ccc(-c2cc(C(=O)Nc3c4cccc(CC(N)=O)c4nn3-c3ccccc3)c(F)cc2C(F)(F)F)n1 [Compound 95, N-(7-(2-Amino-2-oxoethyl)-2-phenyl-2H-indazol-3-yl)-2-fluoro-5-(1-methyl-1H-pyrazol-3-yl)-4-(trifluoromethyl)benzamide] | 0.64
O=C(Nc1c2ncc(C(O)CO)cc2nn1-c1ccccc1)c1cc(-c2ncccn2)c(C(F)(F)F)cc1Cl (single isomer, unassigned; isomer b) [Compound 65, (R or S)-2-chloro-N-[6-(1,2-dihydroxyethyl)-2-phenyl-2H-pyrazolo[4,3-b]pyridin-3-yl]-5-pyrimidin-2-yl-4-(trifluoromethyl)benzamide, isomer B] | 29
CC(O)c1cnc2c(NC(=O)c3cc(-c4cc[nH]n4)c(C(F)(F)F)cc3F)n(-c3ccccc3)nc2c1 (single isomer, unassigned) [Compound 22, 2-Fluoro-N-(6-(1-hydroxyethyl)-2-phenyl-2H-pyrazolo[4,3-b]pyridin-3-yl)-5-(1H-pyrazol-3-yl)-4-(trifluoromethyl)benzamide, isomers A and B] | 1.2
